These results are taken from patent US20220282222A1, “BIO-PRINTED KIDNEY TISSUE” (MURDOCH CHILDREN'S RESEARCH INSTITUTE, priority 2019, published 2022).

“Also recorded” adds a separate entry of the source. Like-named read-outs stand apart in the source and are kept apart here.

Data set [1] has as its system podocytes of the organoid glomeruli. The data set is described as follows: Immunofluorescence analysis of bio-printed organoid sections after Doxorubicin treatment. The class given is cell-based, human. To be noted: 10 μM Doxorubicin, 72 hours. As to the method:
For paraffin-embedded organoids, deparaffinized sections were antigen retrieved in citrate buffer, pH 6.0 (Diagnostic BioSystems, Pleasonton, CA #K035) then blocked in 5% chick serum diluted in TBS-T (v/v) prior to immunofluorescence. For whole mount organoids, organoid harvest, fixation and blocking, and immunofluorescence of prepared sections and whole organoids was performed as described previously (Vanslambrouck J M, et al. J Am Soc Nephrol 30, 1811-1823 (2019)). Images were obtained as described in Vanslambrouck J M, et al. or using an Andor spinning disk confocal microscope with Nikon 25×1.05NA silicone immersion objective.
Doxorubicin (Sigma-Aldrich, D1515) stock solution was prepared in DMSO. Amikacin, Tobramycin, Gentamycin, Neomycin, and Streptomycin were all procured through Sigma Aldrich (St. Louis, Mo.) and prepared as a 25 mg/ml solution in APEL media. Dosing for 6-well nephrotoxicity studies was performed by initially diluting doxorubicin DMSO stock in APEL media, and subsequently diluting further with additional media to achieve concentrations ranging from 0.3 to 10 μM. Dosing for 96-well nephrotoxicity evaluation was performed by serial dilution. For Doxorubicin, serial dilution of DMSO stocks was added to APEL media to achieve concentrations ranging from 24 nM to 25 μM. […]

Data set [2] relates to bio-printed kidney organoids. The data set is described as follows: Organoid viability assessment by ATP content (CellTiter-Glo / CellTiter-Glo 3D) after drug treatment. To be noted: for IC50: Homo sapiens, 72 h; for Cell viability as measured by cellular ATP content: 96-well format, 72-hour treatment, wide concentration range (1.5 μg/mL to 25 mg/mL). As to the method: (§1) Doxorubicin (Sigma-Aldrich, D1515) stock solution was prepared in DMSO. Amikacin, Tobramycin, Gentamycin, Neomycin, and Streptomycin were all procured through Sigma Aldrich (St. Louis, Mo.) and prepared as a 25 mg/ml solution in APEL media. Dosing for 6-well nephrotoxicity studies was performed by initially diluting doxorubicin DMSO stock in APEL media, and subsequently diluting further with additional media to achieve concentrations ranging from 0.3 to 10 μM. Dosing for 96-well nephrotoxicity evaluation was performed by serial dilution. For Doxorubicin, serial dilution of DMSO stocks was added to APEL media to achieve concentrations ranging from 24 nM to 25 μM. Aminoglycoside stock solutions were diluted serially with APEL media to generate dosing concentrations ranging from 1.5 μg/mL to 25 mg/mL. Drug dosing was initiated after day 21 or day 22 of the differentiation protocol. Dosing was performed by applying the full well volume of APEL medium±test article to the apical basket of a Transwell permeable support (4 mL for 6-well plates, 300 μL for 96-well plates). As media containing test articles was added to the Transwell permeable support, the organoids were fully submerged and exposed to any added compounds as the apical and basolateral compartments equilibrated. Drug-supplemented medium was replaced every other day until designated harvest time point.
Kidney organoid viability following drug treatment was assessed by measuring ATP content with CellTiter-Glo or CellTiter-Glo 3D viability assays (Promega, Madison, Wis., USA). In brief, harvested organoids from bio-printed in 6-well plates were individually loaded into Precellys tubes (Bertin Technologies, Bretonneux, France) with CellTiter-Glo buffer and dissociated using a Precellys 24 tissue homogenizer (Bertin Technologies, Bretonneux, France). Homogenized organoids were incubated at room temperature for 10 minutes, then centrifuged at 1000 g for 2 minutes to separate buffer from homogenizing beads. Supernatants were transferred to a white opaque 96-well plate for luminescence measurement on a microplate reader (BMG Labtech, Germany). […] To analyse the ATP content in organoids bio-printed on 96-well plates, all media was aspirated and CellTiter-Glo 3D reagent was added to the apical chamber of Transwell permeable support. The plate was shaken at 400 rpm for 5 minutes at room temperature, and then allowed to sit for 25 minutes prior to luminescent measurement in a white opaque 96-well plate on a microplate reader (BMG Labtech, Germany). Viability analysis was reported as percent of control by normalizing the ATP content of treated organoids relative to control organoids. […]

The test system of data set [3] is bio-printed kidney organoids. The data set is described as follows: Quantitative RT-PCR gene expression analysis following drug exposure. Type of data set: cell-based, human. The note with it: 72 hours. As to the method:
as §1
Total RNA extraction from kidney organoids following drug exposure was performed using an Rneasy Mini kit (Qiagen, Germany) per manufacturer's instructions. RNA was quantified with spectrophotometry with a NanoDrop 2000 (Thermo Fisher, Carlsbad, Calif.). To analyse gene expression, TaqMan Fast One-Step qPCR Master Mix (Applied Biosystems, Foster City, Calif.), TaqMan Probes for genes of interest (ThermoFisher, Carlsbad, Calif.), and house-keeping gene probes (Applied Biosystems, Foster City, Calif.) were combined in assigned wells with RNA. All qPCR reactions were performed and analysed on a StepOnePlus qRT-PCR system (Applied Biosystems, Foster City, Calif.). All data was normalized to house-keeping gene GAPDH prior to normalizing to control samples.

Setting [4] is: 10 μM Doxorubicin, normalized to GAPDH and control.

Regarding `COc1cccc2c1C(=O)c1c(O)c3c(c(O)c1C2=O)C[C@@](O)(C(=O)CO)C[C@@H]3O[C@H]1C[C@H](N)[C@H](O)[C@H](C)O1` [Doxorubicin], in data set [1], the “Caspase 3 activation (cleaved caspase 3, apoptosis) in podocytes” value was “induction of apoptosis; also recorded: specific activation of caspase 3” and the “MAFB staining within podocytes of organoid glomeruli” value is recorded as “podocyte specific loss of MAFB expression; also recorded: loss of MAFB staining”. Moreover, the concentration for half-maximal inhibition (IC50) in data set [2] (read-out: 6-well IC50 (viability, ATP content)) is 3.9 ± 1.8 µM. For the same molecule, the IC50 in data set [2] (read-out: 96-well IC50 (viability, ATP content)) worked out at 3.1 ± 1 µM. Besides, in data set [3] (2 μM Doxorubicin), the “Expression of podocyte marker NPHS1” value is on record as “downregulated” and the “Expression of podocyte marker PODXL” value is on record as “downregulated”. Further, the “Expression of proximal tubule gene CUBN” value in data set [3] (2 μM or 10 μM Doxorubicin) is “only downregulated in response to 10 μM Doxorubicin”. In data set [3] (setting [4]), the “Expression of apoptotic indicator Bcl2-associated X protein (BAX)” value is on record as “upregulation” and the “Expression of kidney injury molecule KIM1 (HAVCR)” value is “upregulation”.
On to Gentamycin, for which the “Cell viability as measured by cellular ATP content” value in data set [2] is recorded as “decreased in a concentration-dependent fashion”.
Same read-out and setting: for Neomycin the value was “decreased in a concentration-dependent fashion”.
